Measured values reported in BindingDB's records for doi:10.1021/jm00161a033 (1986).

biological target: Aldose reductase (Oryctolagus cuniculus); test: In vitro inhibition of rabbit lens aldose reductase.

| IC50 | Structure (SMILES) |
| --- | --- |
| 160000 nM | O=C(O)Cc1ccc2c(c1)CCc1ccccc1C2=O [(5-Oxo-10,11-dihydro-5H-dibenzo[a,d]cyclohepten-2-yl)-acetic acid] |
| 830 nM | O=C(O)Cc1ccc2c(c1)CCc1ccc(O)cc1C2=O [(7-Hydroxy-5-oxo-10,11-dihydro-5H-dibenzo[a,d]cyclohepten-2-yl)-acetic acid] |
| 1000 nM | O=C(O)Cc1ccc2c(=O)c3ccccc3ccc2c1 [(5-Oxo-5H-dibenzo[a,d]cyclohepten-2-yl)-acetic acid] |
| 760 nM | O=C(O)Cc1cc(O)c2c(=O)c3ccccc3ccc2c1 [(4-Hydroxy-5-oxo-5H-dibenzo[a,d]cyclohepten-2-yl)-acetic acid] |
| 210 nM | CC(C(=O)O)c1cc(O)c2c(c1)CCc1ccccc1C2=O (stereo not given) [2-(4-Hydroxy-5-oxo-10,11-dihydro-5H-dibenzo[a,d]cyclohepten-2-yl)-propionic acid] |
| 770 nM | O=C1Cc2ccc3c(c2O1)CCc1ccccc1C3=O [11,12-Dihydro-3H-1-oxa-benzo[4,5]cyclohepta[1,2-e]indene-2,6-dione] |
| 330 nM | O=C(O)Cc1ccc2c(c1)OCc1ccccc1C2=O [Oxepinac] |
| 2700 nM | CC(C(=O)O)c1cc(O)c2c(=O)c3ccccc3ccc2c1 (stereo not given) [2-(4-Hydroxy-5-oxo-5H-dibenzo[a,d]cyclohepten-2-yl)-propionic acid] |
| 110000 nM | O=C(O)Cc1cc(O)c2c(c1)CCc1ccccc1C2=O [(4-Hydroxy-5-oxo-10,11-dihydro-5H-dibenzo[a,d]cyclohepten-2-yl)-acetic acid] |
| 280000 nM | O=C(O)Cc1ccc2c(c1)CCc1cccc(O)c1C2=O [(6-Hydroxy-5-oxo-10,11-dihydro-5H-dibenzo[a,d]cyclohepten-2-yl)-acetic acid] |
